Tested on: Avena fatua (AVEFA)
Experiment: Example B pre-emergence herbicidal activity, glasshouse pot test
Assay type: in vivo
Details: 312 h, rate 250 g/ha, evaluated after 13 days, read-out: Pre-emergence activity AVEFA (100=total damage to plant; 0=no damage to plant)
Method: (§1) Seeds of a variety of test species were sown in standard soil in pots. After cultivation for one day (pre-emergence) or after 8 days cultivation (post-emergence) under controlled conditions in a glasshouse (at 24/16° C., day/night; 14 hours light; 65% humidity), the plants were sprayed with an aqueous spray solution derived from the formulation of the technical active ingredient in acetone/water (50:50) solution containing 0.5% Tween 20 (polyoxyethelyene sorbitan monolaurate, CAS RN 9005-64-5). The test plants were then grown in a glasshouse under controlled conditions in a glasshouse (at 24/16° C., day/night; 14 hours light; 65% humidity) and watered twice daily. After 13 days for pre and post-emergence, the test was evaluated (100=total damage to plant; 0=no damage to plant).
(§2) Alopecurus myosuroides (ALOMY), Avena fatua (AVEFA), Setaria faberi (SETFA), Echinochloa crus-galli (ECHCG), Solanum nigrum (SOLNI) and Amaranthus retroflexus (AMARE)

Structure (SMILES)	pest or weed control at 250 g/ha [%]
CCc1ccc(-c2ccc(Cl)cc2)cc1C1=C(O)C(C)(C)OC(C)(C)C1=O [Compound A-4]	70
Cc1ccc(-c2ccc(Cl)cc2F)cc1C1=C(O)C(C)(C)OC(C)(C)C1=O [Compound A-59]	40
Cc1ccc(-c2c(Cl)cc(Cl)cc2Cl)cc1C1=C(O)C(C)(C)OC(C)(C)C1=O [Compound A-60]	0
CCc1ccc(-c2ccc(Cl)cc2)cc1C1=C(O)[C@@]2(C)C=C[C@H](O2)C1=O [Compound A-62]	20
CCc1ccc(-c2ccc(Cl)cc2)cc1C1=C(O)[C@@]2(CC)C=C[C@H](O2)C1=O [Compound A-63]	0
CCc1ccc(-c2ccc(Cl)cc2C)cc1C1=C(O)C(C)(C)OC(C)(C)C1=O [Compound A-64]	20
CCc1ccc(-c2ccc(Cl)cc2OC)cc1C1=C(O)C(C)(C)OC(C)(C)C1=O [Compound A-65]	0
CCc1ccc(-c2ccc(Cl)cc2F)cc1C1=C(O)C(C)(C)OC(C)(C)C1=O [Compound A-66]	40

Tested on: Setaria faberi (SETFA)
Experiment: as above
Assay type: in vivo
Details: 312 h, rate 250 g/ha, evaluated after 13 days, read-out: Pre-emergence activity SETFA (100=total damage to plant; 0=no damage to plant)
Method: as §1, §2

Structure (SMILES)	pest or weed control at 250 g/ha [%]
CCc1ccc(-c2ccc(Cl)cc2)cc1C1=C(O)C(C)(C)OC(C)(C)C1=O [Compound A-4]	100
Cc1ccc(-c2ccc(Cl)cc2F)cc1C1=C(O)C(C)(C)OC(C)(C)C1=O [Compound A-59]	40
Cc1ccc(-c2c(Cl)cc(Cl)cc2Cl)cc1C1=C(O)C(C)(C)OC(C)(C)C1=O [Compound A-60]	20
CCc1ccc(-c2ccc(Cl)cc2)cc1C1=C(O)[C@@]2(C)C=C[C@H](O2)C1=O [Compound A-62]	60
CCc1ccc(-c2ccc(Cl)cc2)cc1C1=C(O)[C@@]2(CC)C=C[C@H](O2)C1=O [Compound A-63]	30
CCc1ccc(-c2ccc(Cl)cc2C)cc1C1=C(O)C(C)(C)OC(C)(C)C1=O [Compound A-64]	40
CCc1ccc(-c2ccc(Cl)cc2OC)cc1C1=C(O)C(C)(C)OC(C)(C)C1=O [Compound A-65]	0
CCc1ccc(-c2ccc(Cl)cc2F)cc1C1=C(O)C(C)(C)OC(C)(C)C1=O [Compound A-66]	50

Tested on: Echinochloa crus-galli (ECHCG)
Experiment: as above
Assay type: in vivo
Details: 312 h, rate 250 g/ha, evaluated after 13 days, read-out: Pre-emergence activity ECHCG (100=total damage to plant; 0=no damage to plant)
Method: as §1, §2

Structure (SMILES)	pest or weed control at 250 g/ha [%]
CCc1ccc(-c2ccc(Cl)cc2)cc1C1=C(O)C(C)(C)OC(C)(C)C1=O [Compound A-4]	100
Cc1ccc(-c2ccc(Cl)cc2F)cc1C1=C(O)C(C)(C)OC(C)(C)C1=O [Compound A-59]	90
Cc1ccc(-c2c(Cl)cc(Cl)cc2Cl)cc1C1=C(O)C(C)(C)OC(C)(C)C1=O [Compound A-60]	20
CCc1ccc(-c2ccc(Cl)cc2)cc1C1=C(O)[C@@]2(C)C=C[C@H](O2)C1=O [Compound A-62]	0
CCc1ccc(-c2ccc(Cl)cc2)cc1C1=C(O)[C@@]2(CC)C=C[C@H](O2)C1=O [Compound A-63]	0
CCc1ccc(-c2ccc(Cl)cc2C)cc1C1=C(O)C(C)(C)OC(C)(C)C1=O [Compound A-64]	40
CCc1ccc(-c2ccc(Cl)cc2OC)cc1C1=C(O)C(C)(C)OC(C)(C)C1=O [Compound A-65]	90
CCc1ccc(-c2ccc(Cl)cc2F)cc1C1=C(O)C(C)(C)OC(C)(C)C1=O [Compound A-66]	60

Tested on: Amaranthus retroflexus (AMARE)
Experiment: as above
Assay type: in vivo
Details: 312 h, rate 250 g/ha, evaluated after 13 days, read-out: Pre-emergence activity AMARE (100=total damage to plant; 0=no damage to plant)
Method: as §1, §2

Structure (SMILES)	pest or weed control at 250 g/ha [%]
CCc1ccc(-c2ccc(Cl)cc2)cc1C1=C(O)C(C)(C)OC(C)(C)C1=O [Compound A-4]	20
Cc1ccc(-c2ccc(Cl)cc2F)cc1C1=C(O)C(C)(C)OC(C)(C)C1=O [Compound A-59]	0
Cc1ccc(-c2c(Cl)cc(Cl)cc2Cl)cc1C1=C(O)C(C)(C)OC(C)(C)C1=O [Compound A-60]	0
CCc1ccc(-c2ccc(Cl)cc2)cc1C1=C(O)[C@@]2(C)C=C[C@H](O2)C1=O [Compound A-62]	0
CCc1ccc(-c2ccc(Cl)cc2)cc1C1=C(O)[C@@]2(CC)C=C[C@H](O2)C1=O [Compound A-63]	0
CCc1ccc(-c2ccc(Cl)cc2C)cc1C1=C(O)C(C)(C)OC(C)(C)C1=O [Compound A-64]	0
CCc1ccc(-c2ccc(Cl)cc2OC)cc1C1=C(O)C(C)(C)OC(C)(C)C1=O [Compound A-65]	0
CCc1ccc(-c2ccc(Cl)cc2F)cc1C1=C(O)C(C)(C)OC(C)(C)C1=O [Compound A-66]	0

Tested on: Alopecurus myosuroides (ALOMY)
Experiment: as above
Assay type: in vivo
Details: 312 h, rate 250 g/ha, evaluated after 13 days, read-out: Pre-emergence activity ALOMY (100=total damage to plant; 0=no damage to plant)
Method: as §1, §2

Structure (SMILES)	pest or weed control at 250 g/ha [%]
CCc1ccc(-c2ccc(Cl)cc2)cc1C1=C(O)C(C)(C)OC(C)(C)C1=O [Compound A-4]	70
Cc1ccc(-c2ccc(Cl)cc2F)cc1C1=C(O)C(C)(C)OC(C)(C)C1=O [Compound A-59]	30
Cc1ccc(-c2c(Cl)cc(Cl)cc2Cl)cc1C1=C(O)C(C)(C)OC(C)(C)C1=O [Compound A-60]	0
CCc1ccc(-c2ccc(Cl)cc2)cc1C1=C(O)[C@@]2(C)C=C[C@H](O2)C1=O [Compound A-62]	20
CCc1ccc(-c2ccc(Cl)cc2)cc1C1=C(O)[C@@]2(CC)C=C[C@H](O2)C1=O [Compound A-63]	0
CCc1ccc(-c2ccc(Cl)cc2C)cc1C1=C(O)C(C)(C)OC(C)(C)C1=O [Compound A-64]	0
CCc1ccc(-c2ccc(Cl)cc2OC)cc1C1=C(O)C(C)(C)OC(C)(C)C1=O [Compound A-65]	0
CCc1ccc(-c2ccc(Cl)cc2F)cc1C1=C(O)C(C)(C)OC(C)(C)C1=O [Compound A-66]	0

Tested on: Avena fatua (AVEFA)
Experiment: Example B post-emergence herbicidal activity, glasshouse pot test
Assay type: in vivo
Details: 312 h, rate 250 g/ha, evaluated after 13 days, read-out: Post-emergence activity AVEFA (100=total damage to plant; 0=no damage to plant)
Method: as §1, §2

Structure (SMILES)	pest or weed control at 250 g/ha [%]
CCc1ccc(-c2ccc(Cl)cc2)cc1C1=C(O)C(C)(C)OC(C)(C)C1=O [Compound A-4]	80
Cc1ccc(-c2ccc(Cl)cc2F)cc1C1=C(O)C(C)(C)OC(C)(C)C1=O [Compound A-59]	50
Cc1ccc(-c2c(Cl)cc(Cl)cc2Cl)cc1C1=C(O)C(C)(C)OC(C)(C)C1=O [Compound A-60]	0
CCc1ccc(-c2ccc(Cl)cc2)cc1C1=C(O)[C@@]2(C)C=C[C@H](O2)C1=O [Compound A-62]	70
CCc1ccc(-c2ccc(Cl)cc2)cc1C1=C(O)[C@@]2(CC)C=C[C@H](O2)C1=O [Compound A-63]	60
CCc1ccc(-c2ccc(Cl)cc2C)cc1C1=C(O)C(C)(C)OC(C)(C)C1=O [Compound A-64]	0
CCc1ccc(-c2ccc(Cl)cc2OC)cc1C1=C(O)C(C)(C)OC(C)(C)C1=O [Compound A-65]	0
CCc1ccc(-c2ccc(Cl)cc2F)cc1C1=C(O)C(C)(C)OC(C)(C)C1=O [Compound A-66]	30

Tested on: Setaria faberi (SETFA)
Experiment: as above
Assay type: in vivo
Details: 312 h, rate 250 g/ha, evaluated after 13 days, read-out: Post-emergence activity SETFA (100=total damage to plant; 0=no damage to plant)
Method: as §1, §2

Structure (SMILES)	pest or weed control at 250 g/ha [%]
CCc1ccc(-c2ccc(Cl)cc2)cc1C1=C(O)C(C)(C)OC(C)(C)C1=O [Compound A-4]	100
Cc1ccc(-c2ccc(Cl)cc2F)cc1C1=C(O)C(C)(C)OC(C)(C)C1=O [Compound A-59]	90
Cc1ccc(-c2c(Cl)cc(Cl)cc2Cl)cc1C1=C(O)C(C)(C)OC(C)(C)C1=O [Compound A-60]	80
CCc1ccc(-c2ccc(Cl)cc2)cc1C1=C(O)[C@@]2(C)C=C[C@H](O2)C1=O [Compound A-62]	100
CCc1ccc(-c2ccc(Cl)cc2)cc1C1=C(O)[C@@]2(CC)C=C[C@H](O2)C1=O [Compound A-63]	100
CCc1ccc(-c2ccc(Cl)cc2C)cc1C1=C(O)C(C)(C)OC(C)(C)C1=O [Compound A-64]	90
CCc1ccc(-c2ccc(Cl)cc2OC)cc1C1=C(O)C(C)(C)OC(C)(C)C1=O [Compound A-65]	70
CCc1ccc(-c2ccc(Cl)cc2F)cc1C1=C(O)C(C)(C)OC(C)(C)C1=O [Compound A-66]	100

Tested on: Echinochloa crus-galli (ECHCG)
Experiment: as above
Assay type: in vivo
Details: 312 h, rate 250 g/ha, evaluated after 13 days, read-out: Post-emergence activity ECHCG (100=total damage to plant; 0=no damage to plant)
Method: as §1, §2

Structure (SMILES)	pest or weed control at 250 g/ha [%]
CCc1ccc(-c2ccc(Cl)cc2)cc1C1=C(O)C(C)(C)OC(C)(C)C1=O [Compound A-4]	100
Cc1ccc(-c2ccc(Cl)cc2F)cc1C1=C(O)C(C)(C)OC(C)(C)C1=O [Compound A-59]	100
Cc1ccc(-c2c(Cl)cc(Cl)cc2Cl)cc1C1=C(O)C(C)(C)OC(C)(C)C1=O [Compound A-60]	80
CCc1ccc(-c2ccc(Cl)cc2)cc1C1=C(O)[C@@]2(C)C=C[C@H](O2)C1=O [Compound A-62]	100
CCc1ccc(-c2ccc(Cl)cc2)cc1C1=C(O)[C@@]2(CC)C=C[C@H](O2)C1=O [Compound A-63]	100
CCc1ccc(-c2ccc(Cl)cc2C)cc1C1=C(O)C(C)(C)OC(C)(C)C1=O [Compound A-64]	100
CCc1ccc(-c2ccc(Cl)cc2OC)cc1C1=C(O)C(C)(C)OC(C)(C)C1=O [Compound A-65]	90
CCc1ccc(-c2ccc(Cl)cc2F)cc1C1=C(O)C(C)(C)OC(C)(C)C1=O [Compound A-66]	100

Tested on: Amaranthus retroflexus (AMARE)
Experiment: as above
Assay type: in vivo
Details: 312 h, rate 250 g/ha, evaluated after 13 days, read-out: Post-emergence activity AMARE (100=total damage to plant; 0=no damage to plant)
Method: as §1, §2

Structure (SMILES)	pest or weed control at 250 g/ha [%]
CCc1ccc(-c2ccc(Cl)cc2)cc1C1=C(O)C(C)(C)OC(C)(C)C1=O [Compound A-4]	20
Cc1ccc(-c2ccc(Cl)cc2F)cc1C1=C(O)C(C)(C)OC(C)(C)C1=O [Compound A-59]	0
Cc1ccc(-c2c(Cl)cc(Cl)cc2Cl)cc1C1=C(O)C(C)(C)OC(C)(C)C1=O [Compound A-60]	60
CCc1ccc(-c2ccc(Cl)cc2)cc1C1=C(O)[C@@]2(C)C=C[C@H](O2)C1=O [Compound A-62]	0
CCc1ccc(-c2ccc(Cl)cc2)cc1C1=C(O)[C@@]2(CC)C=C[C@H](O2)C1=O [Compound A-63]	0
CCc1ccc(-c2ccc(Cl)cc2C)cc1C1=C(O)C(C)(C)OC(C)(C)C1=O [Compound A-64]	20
CCc1ccc(-c2ccc(Cl)cc2OC)cc1C1=C(O)C(C)(C)OC(C)(C)C1=O [Compound A-65]	10
CCc1ccc(-c2ccc(Cl)cc2F)cc1C1=C(O)C(C)(C)OC(C)(C)C1=O [Compound A-66]	10

Tested on: Alopecurus myosuroides (ALOMY)
Experiment: as above
Assay type: in vivo
Details: 312 h, rate 250 g/ha, evaluated after 13 days, read-out: Post-emergence activity ALOMY (100=total damage to plant; 0=no damage to plant)
Method: as §1, §2

Structure (SMILES)	pest or weed control at 250 g/ha [%]
CCc1ccc(-c2ccc(Cl)cc2)cc1C1=C(O)C(C)(C)OC(C)(C)C1=O [Compound A-4]	90
Cc1ccc(-c2ccc(Cl)cc2F)cc1C1=C(O)C(C)(C)OC(C)(C)C1=O [Compound A-59]	30
Cc1ccc(-c2c(Cl)cc(Cl)cc2Cl)cc1C1=C(O)C(C)(C)OC(C)(C)C1=O [Compound A-60]	20
CCc1ccc(-c2ccc(Cl)cc2)cc1C1=C(O)[C@@]2(C)C=C[C@H](O2)C1=O [Compound A-62]	70
CCc1ccc(-c2ccc(Cl)cc2)cc1C1=C(O)[C@@]2(CC)C=C[C@H](O2)C1=O [Compound A-63]	90
CCc1ccc(-c2ccc(Cl)cc2C)cc1C1=C(O)C(C)(C)OC(C)(C)C1=O [Compound A-64]	20
CCc1ccc(-c2ccc(Cl)cc2OC)cc1C1=C(O)C(C)(C)OC(C)(C)C1=O [Compound A-65]	20
CCc1ccc(-c2ccc(Cl)cc2F)cc1C1=C(O)C(C)(C)OC(C)(C)C1=O [Compound A-66]	20
